Measurements from patent publication US9840513B2 (AbbVie S.à.r.l., priority 2015, dated 2017).

Biological target: T1, F508delCFTR cell surface expression in CFBE41o-F508delCFTR-HRP cells (Homo sapiens, UniProt P13569, DEL508-508)
T1 construct: fused on or other part: Horseradish peroxidase (HRP) reporter inserted in the fourth exofacial (extracellular) loop of CFTR; expression is doxycycline-inducible
Assay: Cell Surface Expression-Horse Radish Peroxidase (CSE-HRP) Assay
Format: cell-based
Settings: for EC50: CFBE41o-F508delCFTR-HRP cells, 18-24 hours at 33° C., 8-point curve, highest concentration 20 μM; for Maximum % activity (%): maximum at any tested concentration, normalized to on-plate positive control (3 μM)
Method in brief: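 CFBE41o- cells with HRP-tagged F508delCFTR, expression induced by 0.5 μg/mL doxycycline for 72 h at 37 °C, then compound for 18-24 h at 33 °C (8-point, 3-fold, top 20 μM). Surface HRP measured by luminol luminescence; % activity normalised to 3 μM positive-control corrector; EC50 from variable-slope sigmoidal fit, three replicate plates.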

T1 sequence (P13569 with tags, fused parts or gaps DEL508-508 limits assumed): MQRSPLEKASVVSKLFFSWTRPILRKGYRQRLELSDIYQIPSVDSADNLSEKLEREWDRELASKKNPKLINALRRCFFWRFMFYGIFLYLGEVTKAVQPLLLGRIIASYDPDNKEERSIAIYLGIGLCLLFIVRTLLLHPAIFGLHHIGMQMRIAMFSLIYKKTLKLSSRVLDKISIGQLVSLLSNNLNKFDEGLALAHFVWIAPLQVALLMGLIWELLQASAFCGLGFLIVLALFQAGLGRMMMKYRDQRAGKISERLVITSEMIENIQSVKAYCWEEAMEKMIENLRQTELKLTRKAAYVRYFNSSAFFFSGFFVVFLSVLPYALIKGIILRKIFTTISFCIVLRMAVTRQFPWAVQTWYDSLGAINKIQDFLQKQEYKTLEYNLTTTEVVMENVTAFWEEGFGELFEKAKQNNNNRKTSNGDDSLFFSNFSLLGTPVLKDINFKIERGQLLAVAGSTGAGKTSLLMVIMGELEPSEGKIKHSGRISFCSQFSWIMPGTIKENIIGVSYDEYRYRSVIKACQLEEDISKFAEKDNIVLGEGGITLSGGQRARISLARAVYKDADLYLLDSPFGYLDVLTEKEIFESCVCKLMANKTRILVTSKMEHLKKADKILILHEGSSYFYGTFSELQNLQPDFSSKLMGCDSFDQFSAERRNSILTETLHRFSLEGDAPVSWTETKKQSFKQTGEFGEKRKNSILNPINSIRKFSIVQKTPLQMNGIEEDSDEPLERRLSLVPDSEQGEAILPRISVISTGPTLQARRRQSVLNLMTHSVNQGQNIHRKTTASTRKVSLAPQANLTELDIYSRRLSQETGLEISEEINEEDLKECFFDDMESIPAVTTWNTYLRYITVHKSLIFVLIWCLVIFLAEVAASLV
T1 sequence (P13569 919-1480 limits assumed, stated change not applied): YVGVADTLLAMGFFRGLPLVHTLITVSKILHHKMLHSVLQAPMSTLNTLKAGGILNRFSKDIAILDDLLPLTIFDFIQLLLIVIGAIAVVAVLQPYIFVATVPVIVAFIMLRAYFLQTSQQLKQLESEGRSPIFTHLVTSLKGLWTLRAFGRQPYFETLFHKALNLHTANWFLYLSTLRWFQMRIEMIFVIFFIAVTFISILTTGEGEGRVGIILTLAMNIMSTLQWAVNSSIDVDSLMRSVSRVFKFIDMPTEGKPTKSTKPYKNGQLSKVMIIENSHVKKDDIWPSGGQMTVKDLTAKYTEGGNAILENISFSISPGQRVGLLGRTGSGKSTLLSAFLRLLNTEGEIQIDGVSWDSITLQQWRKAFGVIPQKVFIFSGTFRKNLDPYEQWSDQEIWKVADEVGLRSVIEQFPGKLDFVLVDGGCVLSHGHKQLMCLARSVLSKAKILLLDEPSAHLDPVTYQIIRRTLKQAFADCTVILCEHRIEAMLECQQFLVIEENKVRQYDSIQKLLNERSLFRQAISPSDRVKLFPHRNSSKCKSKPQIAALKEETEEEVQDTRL

Molecule	EC50 [nM]	Maximum % activity (%)
COc1ccc2c(c1)O[C@@H](c1ccc(C(=O)NCC(C)O)cn1)C[C@H]2NC(=O)[C@@]1(C)COc2cc3c(cc21)OC(F)(F)O3 (stereo partly drawn) [Example 241, 6-[(2R,4R)-4-{[(7R)-2,2-difluoro-7-methyl-6,7-dihydro-2H-furo[2,3-f][1,3]benzodioxole-7-carbonyl]amino}-7-methoxy-3,4-dihydro-2H-1-benzopyran-2-yl]-N-(2-hydroxypropyl)pyridine-3-carboxamide]	40	110
(7R)—N-[5-(3R,4R)-dihydroxypyrrolidin-1-yl)pyrazin-2-yl]-2,2-difluoro-7-methyl-6,7-dihydro-2H-furo[2,3-f][1,3]benzodioxole-7-carboxamide and (7R)—N-[5-(3S,4S)-dihydroxypyrrolidin-1-yl)pyrazin-2-yl]-2,2-difluoro-7-methyl-6,7-dihydro-2H-furo[2,3-f][1,3]benzodioxole-7-carboxamide [Example 121]	11100	23
CC1(C(=O)Nc2cccc(-c3ccc(C(=O)O)cc3)c2)COc2cc3c(cc21)OC(F)(F)O3 (stereo not shown) [Example 69, 3′-[(2,2-difluoro-7-methyl-6,7-dihydro-2H-furo[2,3-f][1,3]benzodioxole-7-carbonyl)amino][1,1′-biphenyl]-4-carboxylic acid]	1390	183
CC(CO)NC(=O)[C@H]1CC[C@H]([C@H]2C[C@@H](NC(=O)[C@@]3(C)COc4cc5c(cc43)OC(F)(F)O5)c3ccc(OC(F)(F)F)cc3O2)CC1 (stereo partly drawn) [Example 259, (7R)-2,2-difluoro-N-[(2R,4R)-2-{trans-4-[(1-hydroxypropan-2-yl)carbamoyl]cyclohexyl}-7-(trifluoromethoxy)-3,4-dihydro-2H-1-benzopyran-4-yl]-7-methyl-6,7-dihydro-2H-furo[2,3-f][1,3]benzodioxole-7-carboxamide]	80	163
Cc1c(C(=O)O)ncn1-c1ccc(C(F)(F)F)cc1NC(=O)C1(C)COc2cc3c(cc21)OC(F)(F)O3 (stereo not shown) [Example 62, 1-{2-[(2,2-difluoro-7-methyl-6,7-dihydro-2H-furo[2,3-f][1,3]benzodioxole-7-carbonyl)amino]-4-(trifluoromethyl)phenyl}-5-methyl-1H-imidazole-4-carboxylic acid]	> 20000	12
Cc1ccc(NC(=O)[C@@]2(C)COc3cc4c(cc32)OC(F)(F)O4)nc1-c1cccc(C#N)c1 [Example 78, (7R)—N-[6-(3-cyanophenyl)-5-methylpyridin-2-yl]-2,2-difluoro-7-methyl-6,7-dihydro-2H-furo[2,3-f][1,3]benzodioxole-7-carboxamide]	570	95
(7R)—N-[6-(3-benzylpyrrolidin-1-yl)pyridin-2-yl]-2,2-difluoro-7-methyl-6,7-dihydro-2H-furo[2,3-f][1,3]benzodioxole-7-carboxamide [Example 113]	1110	83
CC1(C(=O)Nc2cccc(-c3ccccc3)c2)COc2cc3c(cc21)OC(F)(F)O3 (stereo not shown) [Example 54, N-([1,1′-biphenyl]-3-yl)-2,2-difluoro-7-methyl-6,7-dihydro-2H-furo[2,3-f][1,3]benzodioxole-7-carboxamide]	6450	151
C[C@]1(C(=O)N[C@@H]2C[C@H](C3CCNCC3)Oc3cc(OC(F)(F)F)ccc32)COc2cc3c(cc21)OC(F)(F)O3 [Example 182, (7R)-2,2-difluoro-7-methyl-N-[(2R,4R)-2-(piperidin-4-yl)-7-(trifluoromethoxy)-3,4-dihydro-2H-1-benzopyran-4-yl]-6,7-dihydro-2H-furo[2,3-f][1,3]benzodioxole-7-carboxamide]	1680	195
CC(O)CNC(=O)[C@H]1CC[C@H]([C@H]2C[C@@H](NC(=O)[C@@]3(C)COc4cc5c(cc43)OC(F)(F)O5)c3ccc(OC(F)(F)F)cc3O2)CC1 (stereo partly drawn) [Example 258, (7R)-2,2-difluoro-N-[(2R,4R)-2-{trans-4-[(2-hydroxypropyl)carbamoyl]cyclohexyl}-7-(trifluoromethoxy)-3,4-dihydro-2H-1-benzopyran-4-yl]-7-methyl-6,7-dihydro-2H-furo[2,3-f][1,3]benzodioxole-7-carboxamide]	110	174
C[C@]1(C(=O)N[C@@H]2C[C@H](c3ccc(C(=O)O)cc3)Oc3cc(OC(F)F)ccc32)COc2cc3c(cc21)OC(F)(F)O3 [Example 139, 4-[(2R,4R)-7-(difluoromethoxy)-4-{[(7R)-2,2-difluoro-7-methyl-6,7-dihydro-2H-furo[2,3-f][1,3]benzodioxole-7-carbonyl]amino}-3,4-dihydro-2H-1-benzopyran-2-yl]benzoic acid]	20	158
COc1ccc2c(c1)O[C@@H](c1nnnn1Cc1ccccc1)C[C@H]2NC(=O)[C@@]1(C)COc2cc3c(cc21)OC(F)(F)O3 [Example 283, (7R)—N-[(2R,4R)-2-(1-benzyl-1H-tetrazol-5-yl)-7-methoxy-3,4-dihydro-2H-1-benzopyran-4-yl]-2,2-difluoro-7-methyl-6,7-dihydro-2H-furo[2,3-f][1,3]benzodioxole-7-carboxamide]	1760	95
C[C@]1(C(=O)N[C@@H]2C[C@H]([C@H]3CC[C@H](C(=O)Nc4ccccc4O)CC3)Oc3cc(OC(F)(F)F)ccc32)COc2cc3c(cc21)OC(F)(F)O3 [Example 262, (7R)-2,2-difluoro-N-[(2R,4R)-2-{trans-4-[(2-hydroxyphenyl)carbamoyl]cyclohexyl}-7-(trifluoromethoxy)-3,4-dihydro-2H-1-benzopyran-4-yl]-7-methyl-6,7-dihydro-2H-furo[2,3-f][1,3]benzodioxole-7-carboxamide]	90	184
C[C@]1(C(=O)N[C@H]2C[C@@H](c3ccc(C(=O)O)cc3)O[C@@H](c3ccccc3)C2)COc2cc3c(cc21)OC(F)(F)O3 (single isomer, unassigned) [Example 45]	920	111
COc1ccc2c(c1)O[C@@H](Cn1ncccc1=O)C[C@H]2NC(=O)[C@@]1(C)COc2cc3c(cc21)OC(F)(F)O3 [Example 285, (7R)-2,2-difluoro-N-{(2R,4R)-7-methoxy-2-[(6-oxopyridazin-1(6H)-yl)methyl]-3,4-dihydro-2H-1-benzopyran-4-yl}-7-methyl-6,7-dihydro-2H-furo[2,3-f][1,3]benzodioxole-7-carboxamide]	1130	54
COc1ccc2c(c1)O[C@@H](c1ccc(C(=O)Nc3ccccc3O)cn1)C[C@H]2NC(=O)[C@@]1(C)COc2cc3c(cc21)OC(F)(F)O3 [Example 208, 6-[(2R,4R)-4-{[(7R)-2,2-difluoro-7-methyl-6,7-dihydro-2H-furo[2,3-f][1,3]benzodioxole-7-carbonyl]amino}-7-methoxy-3,4-dihydro-2H-1-benzopyran-2-yl]-N-(2-hydroxyphenyl)pyridine-3-carboxamide]	10	103
Cc1ccc(NC(=O)[C@@]2(C)COc3cc4c(cc32)OC(F)(F)O4)nc1-c1ccc(C(=O)NS(C)(=O)=O)cc1 [Example 142, (7R)-2,2-difluoro-N-(6-{4-[(methanesulfonyl)carbamoyl]phenyl}-5-methylpyridin-2-yl)-7-methyl-6,7-dihydro-2H-furo[2,3-f][1,3]benzodioxole-7-carboxamide]	2500	180
